Columns and labels:
[1] = Hair breakage measurement (Cyclic Tester), repair after acidic straightening; settings: acid-straightened ethnic hair, test conditioner, 5 treatments, FIG. 3
Description: Ethnic hair was acid-straightened and aftertreated with a conditioner that contained one of the claimed compositions with elevated triglyceride content, consisting of: 10% olive oil-based ceramide (Example 2). For comparison, the process was conducted with a corresponding amount of pure ceramide NG or pure olive oil.
The repair effect and the boosting of the CMC complex by means of Hair fatigue alpha were measured.
Ethnic hair was chemically straightened. For this purpose, an acidic standard formulation having a pH of about 1-2 was used in combination with the use of a straightening iron. Subsequently, the hair was treated as follows: • 1. Washing with a shampoo consisting of sodium lauryl ether sulfate and cocamidopropylbetaine. • 2. Application of the test conditioner; the contact time was 5 min. Subsequently, the hair tresses were rinsed under flowing tap water at a temperature of 37° C. for 1 min. • 3. Drying of the hair tresses with a hairdryer for 3 minutes.
These three treatment steps were conducted a total of 5×. […]
For quantification of the repair effect, a hair breakage measurement was conducted (Cyclic Tester, Diastron Limited, UK). […] The number of extension cycles survived is recorded and serves to calculate the probability of survival. […]

[2] = Solubility temperature and crystal-free incorporation into cosmetic oils; format: physicochemical; settings: for Appearance at RT: after cooling
Description: For this purpose, the solubility temperatures of the sphingolipids were ascertained: A final concentration of 0.1% ceramide in cosmetic oil was chosen. The ceramide compositions were heated and stirred gradually in the cosmetic oils in a beaker on a hotplate. The solubility temperature was attained as soon as the solution was clear. Subsequently, the mixture was stirred at the solubility temperature ascertained for 1 hour. After it had cooled down to room temperature, the formulation was examined.

[3] = 0.1% ceramide in Mineral Oil (non-polar)
[4] = 0.1% ceramide in Octyldodecanol (polar)
[5] = 0.1% ceramide in TEGOSOFT APM (polar)
[6] = 0.1% ceramide in TEGOSOFT CT (polar-medium polar)
[7] = 0.1% ceramide in TEGOSOFT M (medium polar)
[8] = 0.1% ceramide in TEGOSOFT OS (non-polar)

Substance	repair effect (probability of survival in the hair breakage test) [1]	Solubility temperature [2, 3]	Appearance at RT [2, 3]	Solubility temperature [2, 4]	Appearance at RT [2, 4]	Solubility temperature [2, 5]	Appearance at RT [2, 5]	Solubility temperature [2, 6]	Appearance at RT [2, 6]	Solubility temperature [2, 7]	Appearance at RT [2, 7]	Solubility temperature [2, 8]	Appearance at RT [2, 8]
ceramide NG	not able to achieve any repair effect	–	–	–	–	–	–	–	–	–	–	–	–
ceramide NP [Pure ceramide NP]	–	110 °C	crystals	70 °C	crystals	65 °C	crystals	95 °C	crystals	90 °C	crystals	100 °C	crystals
